Here are results for one compound from US5223413A, “Process for the preparation of vancomycin” (Biochin Biotechnologial Leanyvallalat, priority 1989, dated 1993).

In this assay the test system is ATCC 6633 Bacillus subtilis strain. The assay is described as follows: agar diffusion determination of antibiotic content / biological potency (USP XXII). Type of assay: cell-based. To be noted: final product of Example 5, related to USP reference standard. Here is the method:
The quantitative determination of the antibiotic content of the fermentation broth and final product was performed by using the agar diffusion method according to the prescriptions of USP XXII. on the ATCC 6633 Bacillus subtilis strain. The vancomycin potency values were related to the commercially available USP reference standard.
On the technique in general: Agar diffusion results depend on both activity and mobility in agar.

Where a name gives a salt, the structure may show the parent alone.

Regarding `CN[C@H](CC(C)C)C(=O)N[C@H]1C(=O)N[C@@H](CC(N)=O)C(=O)N[C@H]2C(=O)N[C@H]3C(=O)N[C@H](C(=O)N[C@H](C(=O)O)c4cc(O)cc(O)c4-c4cc3ccc4O)[C@H](O)c3ccc(c(Cl)c3)Oc3cc2cc(c3O[C@@H]2O[C@H](CO)[C@@H](O)[C@H](O)[C@H]2O[C@H]2C[C@](C)(N)[C@H](O)[C@H](C)O2)Oc2ccc(cc2Cl)[C@H]1O` [vancomycin hydrochloride], the “biological potency based on microbiological determination” value is reported as “higher than 968 μg/mg”.
